Source: US7115759B2, “Conjugated linoleic acid compositions” (Natural ASA, priority 2002, dated 2006)

Assays:
[1] = Peroxide value (PV) by chlorimetric ferric thiocyanate method after storage; format: physicochemical; settings: after storage in open glass; spectrophotometric ferric thiocyanate method; unit assumed
Text: The present invention also contemplates stabilization of CLA containing compounds, including but not limited to, CLA, esters of CLA, and triglycerides of CLA by preventing oxidation of the compounds. The present invention is not limited to any one mechanism. Indeed, an understanding of the mechanism of the invention is not necessary to produce the composition or perform the methods of the present invention. […] After storage in open glass, the PV of CLA was 32; in comparison, the value for linoleic acid was 370.

[2] = system: rat mammary tumorigenesis; settings: administration of CLA; Birt et al. 1992; cited from earlier work
[3] = system: human melanoma, colorectal and breast cancer cells; settings: in vitro; cited from earlier work
[4] = diets containing 0.5 percent CLA; pigs, mice, humans; U.S. Pat. No. 5,554,646; cited from earlier work

Compound CCCCC/C=C\C/C=C\CCCCCCCC(=O)O [linoleic acid] has a peroxide value (PV) [1] of 370 meq/kg.
In the case of conjugated linoleic acid [CLA], the peroxide value (PV) [1] is given as 32 meq/kg, the rat mammary tumorigenesis [2] is given as “inhibits rat mammary tumorigenesis” and the cytotoxicity [3] is given as “strong cytotoxic agent”. For the same compound, the fat content [4] was “significant drop in fat content”.
